Reference: patent US20050239152A1, “Continuous-flow enzyme assay” (Kiadis B.V., priority 2002, published 2005)

Columns and labels:
[1] = target: T1, Cathepsin B (E.C. 3.4.22.1, from bovine spleen) (Bos taurus, UniProt P07688); settings: FI-CF system, FIG. 7; antipain compared with E64
Procedure: The enzymatic assay was performed in a continuous-flow ESI-TOF-MS system where the enzyme cathepsin B and the substrate Z-FR-AMC were subsequently added to the carrier solution of a flow injection system simulating the effluent of an LC column. As a consequence, cathepsin B was continuously incubated with Z-FR-AMC, resulting in a continuous supply of converted substrate. The product was pumped into the mass spectrometer and monitored. Various compounds were injected into the continuous-flow system, incubated with the enzyme in a reaction coil and subsequently pumped into the mass spectrometer. […]
More in detail, samples were analyzed by two different continuous-flow (CF) systems, which both consisted of a homogeneous bioassay coupled to a Micromass (Wythenshawe, UK) Q-Tof micro mass spectrometer. […] The amount of formed product was determined by MS, which was equipped with a Micromass Z-spray electrospray ionization (ESI) source. […]
Carrier solution (20 μL/min) was mixed continuously with cathepsin B solution (10 μL/min) in reaction coil A for 40 sec, and carrier/cathepsin B solution with Z-FR-AMC solution (30 μL/min) in reaction coil B for 45 sec. The resulting flow (40 μL/min) coming out of reaction coil B was pumped into the mass spectrometer, where the amount of formed product was directly monitored by ESI-TOF-MS. […]

[2] = target: T1, Cathepsin B (E.C. 3.4.22.1, from bovine spleen); experiment: LC-continuous-flow (LC-CF) ESI-TOF-MS cathepsin B assay, substrate Z-FR-AMC; settings: LC-CF system, FIG. 8; mixture injected, E64 40 μM, CA-074 90 μM
Procedure: For the HPLC screening, solutions were prepared as described herein-above and filled in superloops. Used concentrations were 30 nM cathepsin B and 6 μM internal standard 1, and 50 μM Z-FR-AMC and 6 μM internal standard 2, for superloop 1 and superloop 2, respectively. Injected inhibitors: E64 and CA074, which were in mixture injected (E64: 40 μM; CA-074: 90 μM). […] Compounds injected via an autoinjector were separated by the LC-column, using a binary gradient system consisting of carrier solution and methanol. In order to reduce the amount of methanol that was necessary for separation, a makeup solution was added to the column effluent, resulting in a constant methanol concentration of 10%. Decreasing the concentration of methanol was necessary to prevent enzyme degradation. […] In the LC-CF system, both the enzyme solution and the substrate solution were delivered at a flow rate of 50 μL/min, resulting in a total flow rate of 100 μL/min into the mass spectrometer.
The RP-separation was performed by a binary gradient system, using water and methanol. The organic modifier, however, decreases the activity of enzymes. For this reason, a makeup flow was added after the LC-column (see FIG. 5) to reduce the concentration of methanol. […] This flow was used as the carrier solvent that was pumped into the continuous-flow system. […]

In the case of `CC(C)C[C@H](NC(=O)[C@H]1O[C@@H]1C(=O)O)C(=O)NCCCCN=C(N)N` (relative stereo) [E64, trans-epoxysuccinyl-L-leucylamido-(4-guanidino)butane], the “injected concentration giving more or less the same area of negative peaks” value [1] is reported as 0.50 µM and the “negative peak in product mass trace after LC separation” value [2] is reported as “caused by inhibition”.
